From patent publication US10144737B2 (ETERNITY BIOSCIENCE INC., priority 2014, dated 2018)

Experiments:
Btk = biological target: T1, Btk (Homo sapiens, UniProt Q06187); assay: Btk kinase assay (ADP-Glo); assay type: biochemical; details: ADP-Glo Btk kinase assay kit; ATP 1.2 μM; 60 minutes at room temperature
T1 construct: purchased Promega (Madison, Wis.)
Protocol: Btk kinase assay—The Btk kinase assay was performed using a ADP-Glo Btk kinase assay kit purchased from Promega (Madison, Wis.). The assay was conducted according to the protocols provided in the assay kit. In brief, the enzyme reaction was carried out in the kinase reaction buffer containing Btk (2 ng/μl), ATP (1.2 μM), poly GT peptide (0.3 μM), DTT (40 nM), MnCl2 (1.4 mM), and 1 xkinase buffer (included in the kit) in the presence or absence of the tested articles at various concentrations in 384-well plate at room temperature (22±1° C.) for 60 minutes. The final reaction volume for each reaction was 10 μl. Then, 4 μl of ADP-Glo reagent (included in the kit) was added into the reaction and the plate was further incubated for another 40 minutes to terminate the reaction and deplete the remaining ATP. Finally, 10 μl of the kinase detection reagent was added into each reaction to simultaneously convert ADP to ATP and allow the newly synthesized ATP to be measured by a plate-reading luminometer (Victor X5 2030 multilabel reader, PerkinElmer). IC50 value was calculated using appropriate programs in GraphPad Prism by plotting the logarithm of the concentration versus percent inhibition as compared with a vehicle (DMSO) control.

TMD-8 cells = assay: Cell proliferation assay (CellTiter-Glo), TMD-8 cells; assay type: cell-based; details: Homo sapiens, TMD8, 120 h, 5-day treatment, read-out: TMD8 cell growth (GI50 μM)
Protocol: Cell proliferation assay: TMD-8 and SU-DHL-1 cells were maintained at 37° C. in a humidified atmosphere with 5% CO2 in the recommended medium and serum concentrations. For cell proliferation assay, cells were seeded in 96-well pates at a density of 5,000 to 10,000 cells per well and cultured overnight at 37° C. in recommended medium supplemented with 5-10% FBS. On the next day, the test articles at various concentrations or vehicle control (0.5% DMSO) were added into cell culture. After 5-day treatment, the growth of cells was assayed by the CellTiter-Glo® Luminestceaent Cell Viability Assay (Promega). IC50 values were calculated using GraphPad Prism by plotting the logarithm of the concentration versus percent inhibition of cell growth as compared with the vehicle control.

T1 sequence (Q06187 whole entry): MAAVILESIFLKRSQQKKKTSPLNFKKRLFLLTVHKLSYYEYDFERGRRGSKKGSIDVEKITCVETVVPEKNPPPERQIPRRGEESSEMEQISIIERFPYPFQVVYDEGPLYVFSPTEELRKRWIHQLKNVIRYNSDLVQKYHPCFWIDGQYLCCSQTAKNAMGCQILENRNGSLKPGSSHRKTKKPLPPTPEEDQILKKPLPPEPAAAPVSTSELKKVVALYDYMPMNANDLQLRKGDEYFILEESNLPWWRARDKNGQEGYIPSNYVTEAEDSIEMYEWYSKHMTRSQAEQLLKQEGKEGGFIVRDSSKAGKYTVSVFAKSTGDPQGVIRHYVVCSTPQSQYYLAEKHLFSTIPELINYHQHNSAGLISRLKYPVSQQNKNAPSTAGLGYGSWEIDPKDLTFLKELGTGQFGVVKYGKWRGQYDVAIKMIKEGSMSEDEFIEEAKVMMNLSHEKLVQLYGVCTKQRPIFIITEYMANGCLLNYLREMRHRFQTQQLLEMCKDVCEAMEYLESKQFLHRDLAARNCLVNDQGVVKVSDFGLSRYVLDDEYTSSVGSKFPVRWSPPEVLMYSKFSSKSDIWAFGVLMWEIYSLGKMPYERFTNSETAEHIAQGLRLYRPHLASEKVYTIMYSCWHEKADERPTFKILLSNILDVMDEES

SMILES | IC50 (Btk) | GI50 (TMD-8 cells)
C=CC(=O)N1CCC(Nc2ncnc3[nH]c(C#CCOc4cccc(Cl)c4)nc23)C1 (centres unmarked) [Example 13, 1-(3-((8-(3-(3-chlorophenoxy)prop-1-yn-1-yl)-9H-purin-6-yl)amino)pyrrolidin-1-yl)prop-2-en-1-one] | 1.9 nM | 0.019 µM
C=CC(=O)N1CCC(Nc2ncnc3[nH]c(C#CCOc4ccc(F)c(F)c4)nc23)C1 (centres unmarked) [Example 14, 1-(3-((8-(3-(3,4-difluorophenoxy)prop-1-yn-1-yl)-9H-purin-6-yl)amino)pyrrolidin-1-yl)prop-2-en-1-one] | 15 nM | 0.134 µM
C=CC(=O)N1CCC(Nc2ncnc3[nH]c(C#CCOc4cccc(F)c4)nc23)C1 (centres unmarked) [Example 15, 1-(3-((8-(3-(3-fluorophenoxy)prop-1-yn-1-yl)-9H-purin-6-yl)amino)pyrrolidin-1-yl)prop-2-en-1-one] | 14.8 nM | 0.019 µM
C=CC(=O)N1CCC(Nc2ncnc3[nH]c(C#CCOc4cc(F)cc(F)c4)nc23)C1 (centres unmarked) [Example 17, 1-(3-((8-(3-(3,5-difluorophenoxy)prop-1-yn-1-yl)-9H-purin-6-yl)amino)pyrrolidin-1-yl)prop-2-en-1-one] | 212 nM | 0.25 µM
C=CC(=O)N1CCC(Nc2ncnc3[nH]c(C#CCOc4ccc(Cl)cc4)nc23)C1 (centres unmarked) [Example 19, 1-(3-((8-(3-(4-chlorophenoxy)prop-1-yn-1-yl)-9H-purin-6-yl)amino)pyrrolidin-1-yl)prop-2-en-1-one] | 22 nM | 0.148 µM
CN(C)C/C=C/C(=O)N1CCC(Nc2ncnc3[nH]c(C#CCOc4ccc(Cl)cc4)nc23)C1 (centres unmarked) [Example 21, (E)-1-(3-((8-(3-(4-chlorophenoxy)prop-1-yn-1-yl)-9H-purin-6-yl)amino)pyrrolidin-1-yl)-4-(dimethylamino)but-2-en-1-one] | 4 nM | 1.8 µM

Now those with a lower IC50 (Btk), led by results:

IC50 (Btk) | SMILES | GI50 (TMD-8 cells)
0.6 nM | C=CC(=O)N1CCC(Nc2ncnc3[nH]c(C#CCOc4ccccc4F)nc23)C1 (centres unmarked) [Example 16, 1-(3-((8-(3-(2-fluorophenoxy)prop-1-yn-1-yl)-9H-purin-6-yl)amino)pyrrolidin-1-yl)prop-2-en-1-one] | 0.003 µM
0.02 nM | C=CC(=O)N1CCC(Nc2ncnc3[nH]c(C#CCOc4ccccc4Cl)nc23)C1 (centres unmarked) [Example 18, 1-(3-((8-(3-(2-chlorophenoxy)prop-1-yn-1-yl)-9H-purin-6-yl)amino)pyrrolidin-1-yl)prop-2-en-1-one] | 0.002 µM
0.5 nM | C=CC(=O)N1CCC(Nc2ncnc3[nH]c(C#CCOc4ccc(F)cc4)nc23)C1 (centres unmarked) [Example 20, 1-(3-((8-(3-(4-fluorophenoxy)prop-1-yn-1-yl)-9H-purin-6-yl)amino)pyrrolidin-1-yl)prop-2-en-1-one] | 0.051 µM
0.02 nM | CN(C)C/C=C/C(=O)N1CCC(Nc2ncnc3[nH]c(C#CCOc4ccc(F)cc4)nc23)C1 (centres unmarked) [Example 22, (E)-1-(3-((8-(3-(4-fluorophenoxy)prop-1-yn-1-yl)-9H-purin-6-yl)amino)pyrrolidin-1-yl)-4-(dimethylamino)but-2-en-1-one] | 1 µM
1.5 nM | CN(C)C/C=C/C(=O)N1CCC(Nc2ncnc3[nH]c(C#CCOc4ccccc4F)nc23)C1 (centres unmarked) [Example 23, (E)-1-(3-((8-(3-(2-fluorophenoxy)prop-1-yn-1-yl)-9H-purin-6-yl)amino)pyrrolidin-1-yl)-4-(dimethylamino)but-2-en-1-one] | 0.107 µM
1 nM | C=CC(=O)N1CCC(Nc2ncnc3[nH]c(C#CCOc4ccc(F)cc4F)nc23)C1 (centres unmarked) [Example 24, 1-(3-((8-(3-(2,4-difluorophenoxy)prop-1-yn-1-yl)-9H-purin-6-yl)amino)pyrrolidin-1-yl)prop-2-en-1-one] | 0.01 µM
1 nM | C=CC(=O)N1CCC(Nc2ncnc3[nH]c(C#CCOc4ccccc4OC)nc23)C1 (centres unmarked) [Example 25, 1-(3-((8-(3-(2-methoxyphenoxy)prop-1-yn-1-yl)-9H-purin-6-yl)amino)pyrrolidin-1-yl)prop-2-en-1-one] | 0.006 µM
